From ChEMBL document CHEMBL3603805, “Novel metal chelating molecules with anticancer activity. Striking effect of the imidazole substitution of the histidine-pyridine-histidine system” (Bioorg Med Chem, 2015) come the findings set out here.

Data set [1] has as its system U-251. The experiment in a line: Cytotoxicity against human U251 cells at 10 uM after 24 hrs by MTT assay. The data set is classed as functional, cell-based.
In data set [2] the test system is Escherichia coli. Description: Induction of DNA cleavage in Escherichia coli supercoiled pUC19 DNA assessed as formation of nicked form II DNA using FeSO4 at 30 uM after 1.5 hrs by agarose-gel electrophoresis.
For data set [3], the system named is ASPC1. Description: Cytotoxicity against human AsPC1 cells at 10 uM after 24 hrs by MTT assay. The data set is classed as functional, cell-based.
Data set [4] deals with U-87MG ATCC. Description: Cytotoxicity against human U87 cells at 10 uM after 24 hrs by MTT assay. It is filed as functional, cell-based.
Data set [5] in a line: Stability of the compound under physiological condition. It is filed as physicochemical.

Active and inactive are the calls of the source. The calls are words filed in the database; no cut-off is given here.

Consider `COC(=O)[C@H](Cc1cn(C)cn1)NCc1cc(N(C)C)cc(CN[C@@H](Cc2cn(C)cn2)C(=O)OC)n1`, for which the outcome in data set [1], in data set [3] and in data set [4] was inactive. In addition, the outcome in data set [2] was Active.
As to `COC(=O)[C@H](Cc1cn(Cc2ccccc2)cn1)NCc1cc(N(C)C)cc(CN[C@@H](Cc2cn(Cc3ccccc3)cn2)C(=O)OC)n1`, the outcome in data set [1], in data set [3] and in data set [4] was inactive. For the same compound, the result in data set [2] was Active.
Take `COC(=O)[C@H](Cc1cn(C(c2ccccc2)(c2ccccc2)c2ccccc2)cn1)NCc1cc(N(C)C)cc(CN[C@@H](Cc2cn(C(c3ccccc3)(c3ccccc3)c3ccccc3)cn2)C(=O)OC)n1`: the result in data set [1], in data set [2], in data set [3] and in data set [4] was Active. Also, in data set [5], the Stability entry was “Stable”.
On to `COC(=O)[C@H](Cc1c[nH]cn1)NCc1cc(N(C)C)cc(CN[C@@H](Cc2cn(C)cn2)C(=O)OC)n1`, for which the result in data set [1], in data set [3] and in data set [4] was inactive. Further, in data set [2], the outcome was Active.
For the compound `COC(=O)[C@H](Cc1c[nH]cn1)NCc1cc(N(C)C)cc(CN[C@@H](Cc2cn(C(c3ccccc3)(c3ccccc3)c3ccccc3)cn2)C(=O)OC)n1`, the result in data set [1], in data set [2], in data set [3] and in data set [4] was Active. Moreover, the Stability entry in data set [5] is on record as “Stable”.
As for `COC(=O)[C@H](Cc1c[nH]cn1)NCc1cc(N(C)C)cc(CN[C@@H](Cc2c[nH]cn2)C(=O)OC)n1`, the result in data set [1], in data set [3] and in data set [4] was inactive. Moreover, the result in data set [2] was Active.
